Experimental data taken from patent publication US20060014717A1, “Therapeutic compositions for use in prophylaxis or treatment of diarrheas” (priority 2002, published 2006).

Key:
[1] = system: gastric and enterohepatic Helicobacter spp.; assay: Binding of Helicobacter spp. to glycosphingolipids (statements for several species)
Description: (§1) Gastric species examined in the present study included, Helicobacter mustelae ferret isolates from the National Collection of Type Cultures (NCTC) and the Culture Collection of the University of Gothenberg (CCUG), NCTC 12198/CCUG 25175 (equivalent strains from different sources tested), CCUG 23950 and CCUG 23951, Helicobacterfelis CCUG 28539 from a cat, in addition, H. pylori strains CCUG 17874, CCUG 17875 and a clinical isolate 119/95 were used. Enterohepatic helicobacters of animal origin were purchased from the CCUG including, Helicobacter canes CCUG 33835, Helicobacter bilis CCUG 38995, Helicobacter hepaticus CCUG 33637, and Helicobacterfennelliae (CCUG 18820).
(§2) Binding of Helicobacter spp. to glycosphingolipids, both acid and non-acidfractions. Glycosphingolipids were isolated by standard procedures (Karlsson, 1987). The identity of the purified glycosphingolipids was confirmed by mass spectrometry (Samuelsson et al., 1990), proton NMR spectroscopy (Koerner et al., 1983) and degradation studies (Stellner et al., 1973; Yang and Hakomori, 1971).
(§3) Mixtures of glycosphingolipids (40 μg/lane) or pure compounds (2 μg/lane) were subsequently separated using thin-layer chromatography (TLC) on glass- or aluminum-backed silica gel 60 HPTLC plates (Merck, Darmstadt, Germany), with chloroform/methanot/water (60:35:8, by volume) as solvent system. Chemical detection was accomplished by anisaldehyde (Waldi, 1962). Helicobacter spp. were subjected to ^35S-labeling (Angstrom et al., 1998) and suspended in PBS (10^8 CFU/ml) with a specific activity of approximately 1 cpm per 100 organisms. Binding of the labeled-bacteria to glycosphingolipids separated by TLC was achieved using a bacterial-overlay technique coupled with autoradiography detection using XAR-5 X-ray films (Eastman Kodak, Rochester, N.Y.) as previously described (Hansson et al., 1985).

E. coli EIEC CCUG 38092 = assay: Chromatogram binding assay, binding specificities of type strains; set-up: species or system Escherichia coli; conditions: prolonged sub-culture, 4 μg per lane
Description: Culture Conditions and Labeling—The E. coli strains were cultured on Luria-agar with the addition of 10 μl ^35S-methionine (400 tici; Amersham Pharmacia Biotech, U.K.) at 37° C. for 12 h. The bacteria were harvested by scraping, washed three times with phosphate-buffered saline (PBS), pH 7.3, and thereafter resuspended in PBS (with or without 1% mannose (w/v)) to 1×10^8 CFU/ml. The specific activities of the suspensions were approximately 1 cpm per 100 bacteria.
Thin-Layer Chromatography—Thin-layer chromatography of glycosphingolipids was performed on glass- or aluminum-backed silica gel 60 HPTLC plates (Merck, Darmstadt, Germany), using chloroform/methanol/water 60:35:8 (by volume) as solvent system. Chemical detection was done with anisaldehyde (6).
(§4) Glycosphingolipid Binding Assays—Binding of ^35S-labeled bacteria to glycosphingolipids on thin-layer chromatograms was done as reported (7). Dried chromatograms were dipped for 1 min in diethylether/n-hexane (1:5, by volume) containing 0.5% (w/v) polyisobutylmethacrylate (Aldrich Chem. Comp. Inc., Milwaukee, Wis.). After drying, the chromatograms were soaked in PBS containing 2% bovine serum albumin (w/v), 0.1% NaN3 (w/v) and 0.1% Tween 20 (by volume) for 2 h at room temperature. The chromatograms were subsequentely covered with radiolabeled bacteria diluted in PBS (2-5×10^6 cpm/ml). Incubation was done for 2 h at room temperature, followed by repeated washings with PBS. The chromatograms were thereafter autoradiographed using XAR-5 X-ray films (Eastman Kodak, Rochester, N.Y.) for 12 h. Autoradiograms were replicated using a CCD camera (Dage-MTI, Inc., Michigan City, Ind.), and analysis of the images was performed using the public domain NIH Image program (developed at the U.S. National Institutes of Health, and available at http://rsb.info.nih.eov/nih-imaee/).
However, several wild type diarrheagenic E. coli strains bind to sialic acid (see e.g. FIG. 6 and FIG. 3). […]

H. felis CCUG 28539 = assay: Binding of 35S-labeled Helicobacter species to glycosphingolipids on thin-layer chromatograms; set-up: species or system Helicobacter felis; key: + denotes a significant darkening on the autoradiogram when 2 μg (or 40 μg in the case of the last sample) was applied to TLC plates; − denotes no binding; conditions: 2 μg (40 μg for the glycosphingolipid fraction) on TLC plates
Description: as §1, §2, §3

[2] = system: H. mustelae CCUG 23950 & 23951; assay: as above; set-up: species or system Helicobacter mustelae; key: + denotes a significant darkening on the autoradiogram when 2 μg (or 40 μg in the case of the last sample) was applied to TLC plates; − denotes no binding; conditions: 2 μg (40 μg for the glycosphingolipid fraction) on TLC plates
Description: as §1, §2, §3

H. mustelae 25715 = assay: as above; set-up: species or system Helicobacter mustelae; key: + denotes a significant darkening on the autoradiogram when 2 μg (or 40 μg in the case of the last sample) was applied to TLC plates; − denotes no binding; conditions: 2 μg (40 μg for the glycosphingolipid fraction) on TLC plates
Description: as §1, §2, §3

H. hepaticus CCUG 33637 = assay: as above; set-up: species or system Helicobacter hepaticus; key: + denotes a significant darkening on the autoradiogram when 2 μg (or 40 μg in the case of the last sample) was applied to TLC plates; − denotes no binding; conditions: 2 μg (40 μg for the glycosphingolipid fraction) on TLC plates
Description: as §1, §2, §3

H. pylori CCUG 17874 = assay: as above; set-up: species or system Helicobacter pylori; key: + denotes a significant darkening on the autoradiogram when 2 μg (or 40 μg in the case of the last sample) was applied to TLC plates; − denotes no binding; conditions: 2 μg (40 μg for the glycosphingolipid fraction) on TLC plates
Description: as §1, §2, §3

H. pylori CCUG 17875 = assay: as above; set-up: species or system Helicobacter pylori; key: + denotes a significant darkening on the autoradiogram when 2 μg (or 40 μg in the case of the last sample) was applied to TLC plates; − denotes no binding; conditions: 2 μg (40 μg for the glycosphingolipid fraction) on TLC plates
Description: as §1, §2, §3

H. bilis CCUG 38995 = assay: as above; set-up: species or system Helicobacter bilis; key: + denotes a significant darkening on the autoradiogram when 2 μg (or 40 μg in the case of the last sample) was applied to TLC plates; − denotes no binding; conditions: 2 μg (40 μg for the glycosphingolipid fraction) on TLC plates
Description: as §1, §2, §3

H. canis CCUG 33835 = assay: as above; set-up: species or system Helicobacter canis; key: + denotes a significant darkening on the autoradiogram when 2 μg (or 40 μg in the case of the last sample) was applied to TLC plates; − denotes no binding; conditions: 2 μg (40 μg for the glycosphingolipid fraction) on TLC plates
Description: as §1, §2, §3

EPEC strain = conditions: listed in decreasing order of activity; cited from earlier work
diarrheagenic E. coli = assay: Comparison of binding to dilution series of sialyl-neolactotetraosylceramide variants; set-up: species or system Escherichia coli; conditions: dilution series of glycolipids
Description: as §4
To dissect the sialic acid binding preferences of diarrheagenic E. coli, the binding of bacteria to variants of sialyl-neoleactotetraosylceramide was compared. […] The comparison was performed by using dilution series of glycolipids and comparing the disappearence of the bindings when the amounts of glycolipids were reduced.

Substance | Binding of Helicobacter spp. to glycosphingolipid, in words ([1]; both gastric and enterohepatic Helicobacter spp. tested) | Binding of E. coli CCUG 38092 to pure glycosphingolipids after sub-culture (E. coli EIEC CCUG 38092; listed as isoglobotriaosylceramide) | Binding of glycosphingolipids to H.felis 28539 (H. felis CCUG 28539) | Binding of glycosphingolipids to H.mustelae 23950 & 23951 [2] | Binding of glycosphingolipids to H.mustelae 25715 (H. mustelae 25715) | Binding of glycosphingolipids to H.hepaticus 33637 (H. hepaticus CCUG 33637) | Binding of glycosphingolipids to H.pylori 17874 (H. pylori CCUG 17874) | Binding of glycosphingolipids to H.pylori 17875 (H. pylori CCUG 17875) | Binding of glycosphingolipids to H.bilis 38995 (H. bilis CCUG 38995) | Binding of glycosphingolipids to H.canis 33835 (H. canis CCUG 33835) | Binding of Helicobacter spp. to glycosphingolipid, in words ([1]; H. felis, H. canis, H. hepaticus and H. bilis) | Binding of E. coli CCUG 38092 to pure glycosphingolipids after sub-culture (E. coli EIEC CCUG 38092) | Binding of an EPEC strain to commercial glycolipids (EPEC strain) | Relative binding affinity, order by disappearance of binding in dilution series (diarrheagenic E. coli)
Galα3Galβ4Glcβ1Cer [No. 7] | capable of binding | Selective loss of binding | + | + | + | + | + | + | + | + | – | – | – | –
Galβ3GalNAcβ4Galβ4Glcβ1Cer [No. 11] | – | – | + | + | + | + | + | + | + | + | binding was demonstrated | remain | observed to bind | –
NeuAcα3Galβ4GlcNAcβ3Galβ4Glcβ1Cer [No. 31] | – | – | – | – | – | – | – | – | – | – | – | – | – | finally
NeuGcα3Galβ4GlcNAcβ3Galβ4Glcβ1Cer [No. 33] | – | – | – | – | – | – | – | – | – | – | – | – | – | highest affinity
